Measurements reported in ChEMBL document CHEMBL3872207, “Aromatic heterocyclic esters of podophyllotoxin exert anti-MDR activity in human leukemia K562/ADR cells via ROS/MAPK signaling pathways” (Eur J Med Chem, 2016).

What was measured:
[1] = Downregulation of CDK2 expression in human K562/ADR cells assessed as ratio of CDK2 to beta-actin level at 0.1 uM measured after 48 hrs by Western blot analysis (reference value: 0.65); format: functional, cell-based
[2] = Downregulation of CDK2 expression in human K562/ADR cells assessed as ratio of CDK2 to beta-actin level at 0.1 uM pretreated with MAPK inhibitor U0126 for 1 hr followed by compound addition measured after 48 hrs by Western blot analysis (reference value: 0.65); format: functional, cell-based
K562 = assay: Resistance index, ratio of IC50 for human K562/ADR cells to IC50 for human K562 cells; format: functional
K562/Adr [3] = assay: Induction of ERK1/2 phosphorylation in human K562/ADR cells assessed as ratio of phosphorylated ERK1/2 to beta-actin level at 0.1 uM measured after 48 hrs by Western blotting (reference value: 0.22); format: cell-based
[4] = Downregulation of CDK2 expression in human K562/ADR cells assessed as ratio of CDK2 to beta-actin level at 0.1 uM pretreated with ROS scavenger NAC for 2 hrs followed by compound addition measured after 48 hrs by Western blot analysis (reference value: 0.65); format: functional, cell-based
[5] = target: MAP kinase p38 (Homo sapiens) (UniProt O15264+Q15759+Q16539+P53778); assay: Induction of P38 phosphorylation in human K562/ADR cells assessed as ratio of phosphorylated p38 to beta-actin level at 0.1 uM pretreated with ROS scavenger NAC for 2 hrs followed by compound addition after 48 hrs by Western blotting method (reference value: 0.25); format: cell-based
K562/Adr [6] = assay: Induction of apoptosis in human K562/ADR cells assessed as late apoptotic cells at 0.1 uM pretreated with MAPK inhibitor U0126 for 1 hr followed by compound addition after 48 hrs by Annexin V-APC/7-AAD staining based flow cytometry (reference value: 1.69%); format: functional; design: scale not given: the % may be the effect or the level left
K562/Adr [7] = assay: Induction of apoptosis in human K562/ADR cells assessed as ratio of cleaved PARP to beta-actin level at 0.1 uM pretreated with ROS scavenger NAC for 2 hrs followed by compound addition measured after 48 hrs by Western blot analysis (reference value: 0.04); format: functional
[8] = Downregulation of CDK1 expression in human K562/ADR cells assessed as ratio of CDK1 to beta-actin level at 0.1 uM pretreated with MAPK inhibitor U0126 for 1 hr followed by compound addition measured after 48 hrs by Western blot analysis (reference value: 0.53); format: functional, cell-based
K562/Adr [9] = assay: Induction of apoptosis in human K562/ADR cells assessed as late apoptotic cells at 0.1 uM pretreated with ROS scavenger NAC for 2 hrs followed by compound addition after 48 hrs by Annexin V-APC/7-AAD staining based flow cytometry (reference value: 1.69%); format: functional
K562/Adr [10] = assay: Induction of apoptosis in human K562/ADR cells assessed as necrotic cells at 0.1 uM after 48 hrs by Annexin V-APC/7-AAD staining based flow cytometry (reference value: 0.26%); format: functional
[11] = target: c-Jun N-terminal kinase, JNK (Homo sapiens) (UniProt P45983+P53779+P45984); assay: Induction of JNK phosphorylation in human K562/ADR cells assessed as ratio of phosphorylated JNK to beta-actin level at 0.1 uM pretreated with MAPK inhibitor SP600125 for 1 hr followed by compound addition after 48 hrs by Western blotting method (reference value: 0.46); format: cell-based
K562/Adr [12] = assay: Induction of apoptosis in human K562/ADR cells assessed as ratio of cleaved caspase-8 to beta-actin level at 0.1 uM pretreated with MAPK inhibitor SP600125 for 1 hr followed by compound addition measured after 48 hrs by Western blot analysis (reference value: 0.07); format: functional
K562/Adr [13] = assay: Induction of apoptosis in human K562/ADR cells assessed as ratio of cleaved caspase-9 to beta-actin level at 0.1 uM pretreated with MAPK inhibitor U0126 for 1 hr followed by compound addition measured after 48 hrs by Western blot analysis (reference value: 0.05); format: functional
K562/Adr [14] = assay: Induction of apoptosis in human K562/ADR cells assessed as viable cells at 0.1 uM pretreated with MAPK inhibitor U0126 for 1 hr followed by compound addition after 48 hrs by Annexin V-APC/7-AAD staining based flow cytometry (reference value: 95.31%); format: functional; settings: read-out: Activity
K562/Adr [15] = assay: Induction of apoptosis in human K562/ADR cells assessed as ratio of cleaved caspase-3 to beta-actin level at 0.1 uM pretreated with ROS scavenger NAC for 2 hrs followed by compound addition measured after 48 hrs by Western blot analysis (reference value: 0.06); format: functional
K562/Adr [16] = assay: Induction of apoptosis in human K562/ADR cells assessed as late apoptotic cells at 0.1 uM after 48 hrs by Annexin V-APC/7-AAD staining based flow cytometry (reference value: 1.69%); format: functional
[17] = Downregulation of CDK1 expression in human K562/ADR cells assessed as ratio of CDK1 to beta-actin level at 0.1 uM pretreated with ROS scavenger NAC for 2 hrs followed by compound addition measured after 48 hrs by Western blot analysis (reference value: 0.53); format: functional, cell-based
K562/Adr [18] = assay: Induction of apoptosis in human K562/ADR cells assessed as ratio of cleaved caspase-8 to beta-actin level at 0.1 uM pretreated with MAPK inhibitor U0126 for 1 hr followed by compound addition measured after 48 hrs by Western blot analysis (reference value: 0.07); format: functional
K562/Adr [19] = assay: Induction of apoptosis in human K562/ADR cells assessed as ratio of cleaved caspase-9 to beta-actin level at 0.1 uM measured after 48 hrs by Western blot analysis (reference value: 0.05); format: functional
K562/Adr [20] = assay: Induction of apoptosis in human K562/ADR cells assessed as ratio of cleaved PARP to beta-actin level at 0.1 uM pretreated with MAPK inhibitor SP600125 for 1 hr followed by compound addition measured after 48 hrs by Western blot analysis (reference value: 0.04); format: functional
[21] = Downregulation of CyclinB1 expression in human K562/ADR cells assessed as ratio of CyclinB1 to beta-actin level at 0.1 uM pretreated with MAPK inhibitor U0126 for 1 hr followed by compound addition measured after 48 hrs by Western blot analysis (reference value: 0.77); format: functional, cell-based
[22] = Antiproliferative activity against human K562 cells measured after 72 hrs by CCK8 assay; format: functional, cell-based; settings: K562, 72 h
K562/Adr [23] = assay: Induction of apoptosis in human K562/ADR cells assessed as ratio of cleaved caspase-3 to beta-actin level at 0.1 uM pretreated with MAPK inhibitor SP600125 for 1 hr followed by compound addition measured after 48 hrs by Western blot analysis (reference value: 0.06); format: functional
K562/Adr [24] = assay: Induction of apoptosis in human K562/ADR cells assessed as ratio of cleaved caspase-9 to beta-actin level at 0.1 uM pretreated with MAPK inhibitor SB203580 for 1 hr followed by compound addition measured after 48 hrs by Western blot analysis (reference value: 0.05); format: functional
K562/Adr [25] = assay: Induction of apoptosis in human K562/ADR cells assessed as early apoptotic cells at 0.1 uM pretreated with MAPK inhibitor SB203580 for 1 hr followed by compound addition after 48 hrs by Annexin V-APC/7-AAD staining based flow cytometry (reference value: 2.74%); format: functional; design: scale not given: the % may be the effect or the level left

COc1cc([C@@H]2c3cc4c(cc3[C@H](OC(=O)c3ccco3)[C@H]3COC(=O)[C@H]23)OCO4)cc(OC)c1OC
Ratio [1]: 0.14
Ratio [2]: 0.26
Ratio IC50 (K562): 1.28
Ratio (K562/Adr [3]): 0.33
Ratio [4]: 0.43
Ratio [5]: 0.29
Activity (K562/Adr [6]): 31.44%
Ratio (K562/Adr [7]): 0.13
Ratio [8]: 0.26
Activity (K562/Adr [9]): 24.34%
Activity (K562/Adr [10]): 5.49%
Ratio [11]: 0.05
Ratio (K562/Adr [12]): 0.47
Ratio (K562/Adr [13]): 0.26
viability at 0.1 µM (K562/Adr [14]): 56.5%
Ratio (K562/Adr [15]): 0.2
Activity (K562/Adr [16]): 40.45%
Ratio [17]: 0.49
Ratio (K562/Adr [18]): 0.42
Ratio (K562/Adr [19]): 0.69
Ratio (K562/Adr [20]): 0.53
Ratio [21]: 0.51
IC50 [22]: 25 nM
Ratio (K562/Adr [23]): 0.51
Ratio (K562/Adr [24]): 0.44
Activity (K562/Adr [25]): 6.84%
